The values that follow come from patent US8889678B2, “Acyl guanidine derivatives modulating the hedgehog protein signaling pathway” (Centre National de la Recherche Scientifique, priority 2009, dated 2014).

Data set [1] deals with Hedgehog protein signaling pathway. Briefly: Inhibition of SAG-induced alkaline phosphatase activity (differentiation) in C3H10T1/2 cells. Format: cell-based. Conditions: read-out: IC50 (concentration which inhibits 50% of the alkaline phosphatase activity). On the procedure: The compounds of formula (I) to be tested were dissolved in dimethyl sulfoxide until a concentration of 10 mM was obtained, and then stored at a temperature of −20° C. until use.
The pluripotent fibroblast cell line C3H10T1/2 was cultured under the conditions recommended by the American Type Culture Collection (ATCC).
Activation with SAG causes the cell line to differentiate and allows the cells to express alkaline phosphatase. It was thus possible to measure the activity of the Hedgehog protein signaling pathway by measuring the alkaline phosphatase activity.
The C3H10T1/2 cells were seeded onto 96-well plates at a density of 5×10^3 cells per well, 24 hours before the addition of the test compounds at a concentration ranging from 1 nM to 30 μM and in the presence of 0.1 μM of SAG, using DMEM (Dulbecco's Modified Eagle's Medium) with 10% fetal calf serum, as culture medium. The tests were carried out in quadruplicate. The plates were then incubated for 5 to 6 days at a temperature of 37° C. under an atmosphere of 5% CO2. The cells were then washed in a cold phosphate buffer (Phosphate Buffered Saline: PBS), and then lysed by sonication at 4° C. in 50 μL of solution containing 0.9% of NaCl and 0.2% of Triton X-100.

For data set [2], the target named is T1, mouse Smoothened receptor (Mus musculus, UniProt P56726).
T1 construct: expressed in transfected cells; host or cells: HEK293 cells, transiently transfected with Fugene6
Nature of the data set: Competition with bodipycyclopamine binding on HEK293 cells transfected with mouse Smoothened. Conditions: 5 nM bodipycyclopamine, 2 hours at 37° C., read-out: IC50 (concentration which inhibits 50% of the bodipycyclopamine binding).
Procedure: HEK293 cells are seeded at 70 000 cells per well onto glass cover slips treated with poly-D-lysine in a 24-well plate, and transfected the following day with 0.25 μg of plasmid encoding the mouse Smoothened protein using 0.7 μl of Fugene6 (Roche biochemicals) according to the protocol described by the supplier (i.e. 0.7 μl of Fugene 6 are added to 24 μl of DMEM without any additive, in each well. The mixture is then incubated for 5 minutes at ambient temperature, 0.25 μg of plasmid DNA are added, and then the whole is mixed and incubated for 20 to 30 minutes at ambient temperature. 25 μl of the mixture thus prepared are then added directly to the cell culture medium, in each well of the plate containing 24 wells). After 48 hours, the culture medium is removed, and the cells are rinsed once with 1 ml of a PBS (Phosphate Buffered Saline) phosphate buffer solution, and then fixed for 20 minutes in the presence of an ice-cold solution of paraformaldehyde (PFA) at 4%, and 0.12 M glucose in a PBS phosphate buffer solution. The cells are then rinsed once and washed twice for 5 minutes with 1 ml of a PBS phosphate buffer solution containing 0.5% of fetal calf serum (PBS-FCS). […] The cells are then washed twice for 5 minutes with 1 ml of PBS-FCS, then brought into contact with 1 ml of a 1×PBS phosphate buffer solution. Finally, the cover slips are mounted on a glass slide in the presence of Vectashield containing DAPI (4′,6′-diamidino-2-phenylindole) so as to label the cell nuclei (Vector). […] The fluorescence intensity is then analyzed using the Simple PCI 6.2 software (Hamamatsu Corporation), and then related to the surface area of the nuclei present on the photograph.

For data set [3], the system named is cells. Conditions: Borzillo et al., Curr. Top Med. Chem., 2005; cited from earlier work.
Data set [4] relates to Shh pathway. Briefly: In vivo inhibition of Shh-induced Patched mRNA in the subventricular zone of adult mouse brain (in situ hybridization). Conditions: adult mice, 4.5 pmol injected with recombinant Shh protein (290 ng) into the lateral ventricle, in situ hybridization 48 hours after injection. On the procedure: Adult male Swiss mice (8 weeks old, 35 g) were anesthetized with a mixture of ketamine (Mérial®, Lyon, France) (0.1 mg/g) and xylazine (Bayer®, Puteaux, France) (0.01 mg/g) by intraperitoneal (i. p.) injection. The recombinant Shh protein (290 ng in a buffer solution containing 150 mM of sodium chloride NaCl and 0.5 mM of dithitheritol DTT), was diluted in 4.5 μl of a solution of 2-hydroxypropyl-beta-cyclodextrin (HBC) at 45% in PBS optionally containing 4.5 pmol of Cur61414 or of compound 24. This mixture was injected stereotaxically into the right lateral ventricle (LV) (n=5 animals for each group), at the following coordinates given relative to the Bregma axis: anteroposterior+0.2 mm; lateral+0.8 mm; dorsoventral−2.5 mm. The reference atlas for the stereotaxic coordinates is: The mouse brain in stereotaxic coordinates, Georges Paxinos, Keith B. J., Franklin, 2nd edition, 2001, Academic Press (San Diego, United States).
The detection of the Patched messenger RNA by in situ hybridization was carried out 48 hours after the injection, as described by Traiffort et al., Eur. J. Neursci, 1999, 11, 3199-3214.

The mark [5] stands for this setting: Mus musculus, C3H 10T1/2, after induction with 0.1 μM SAG.

Where two headings read alike, the source gives them in different places.

T1 sequence (P56726 33-793): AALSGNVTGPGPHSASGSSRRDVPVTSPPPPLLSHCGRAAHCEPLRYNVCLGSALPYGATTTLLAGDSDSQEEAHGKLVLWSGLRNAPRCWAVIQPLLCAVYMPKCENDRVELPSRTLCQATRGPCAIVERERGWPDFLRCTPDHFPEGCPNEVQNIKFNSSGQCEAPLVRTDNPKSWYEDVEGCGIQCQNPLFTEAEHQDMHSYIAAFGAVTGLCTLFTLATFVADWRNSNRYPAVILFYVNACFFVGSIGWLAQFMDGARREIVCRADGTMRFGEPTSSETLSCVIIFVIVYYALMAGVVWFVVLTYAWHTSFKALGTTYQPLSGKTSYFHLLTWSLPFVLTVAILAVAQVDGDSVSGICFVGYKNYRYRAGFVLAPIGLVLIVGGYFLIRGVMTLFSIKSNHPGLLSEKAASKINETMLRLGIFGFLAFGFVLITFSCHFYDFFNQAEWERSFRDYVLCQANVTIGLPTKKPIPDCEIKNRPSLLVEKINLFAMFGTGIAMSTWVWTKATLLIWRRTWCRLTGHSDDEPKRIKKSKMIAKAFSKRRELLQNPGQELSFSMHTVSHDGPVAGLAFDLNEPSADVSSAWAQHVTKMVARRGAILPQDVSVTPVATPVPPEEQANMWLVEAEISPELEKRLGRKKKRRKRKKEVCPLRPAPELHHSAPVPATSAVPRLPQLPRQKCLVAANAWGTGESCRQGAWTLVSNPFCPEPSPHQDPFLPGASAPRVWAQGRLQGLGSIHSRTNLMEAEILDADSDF

For orientation: melting point means the temperature, or range, at which the solid turns liquid. Compound `COc1cc(C(=O)NC(=N)Nc2ccc(Cl)c(NC(=O)Nc3ccccc3)c2)cc(OC)c1OC` [Compound 38, N—(N-(4-chloro-3-(3-phenylureido)phenyl)carbamimidoyl)-3,4,5-trimethoxybenzamide] gave a melting point of 127 °C.

Consider `COc1cc(C(=O)NC(=N)Nc2cccc(-n3ccc4ccccc43)c2)cc(OC)c1OC` [Compound 29, N—(N-(3-(1H-indol-1-yl)phenyl)carbamimidoyl)-3,4,5-trimethoxybenzamide], for which the IC50 in data set [1] (setting [5]) lay within 300 to 1000 nM.

Turning to `COc1cc(C(=O)NC(=N)Nc2ccc(C)c(NC(=O)c3ccc(-c4ccc(F)cc4)cc3)c2)cc(OC)c1OC` [Compound 30, 4′-fluoro-N-(2-methyl-5-(3-(3,4,5-trimethoxybenzoyl)-guanidino)phenyl)biphenyl-4-carboxamide], the IC50 in data set [1] (setting [5]) fell in the range of 3 to 30 nM.

As for `COc1cc(C(=O)NC(=N)Nc2cccc(-c3cn4ccsc4n3)c2)cc(OC)c1OC` [Compound 28], the IC50 in data set [1] (setting [5]) was 300 to 1000 nM.

For the compound `COc1cc(C(=O)NC(=N)Nc2cccc(NC(=O)c3ccc(-c4ccc(F)cc4)cc3)c2)cc(OC)c1OC` [Compound 23, 4′-fluoro-N-(3-(3-(3,4,5-trimethoxybenzoyl)guanidino)phenyl)-biphenyl-4-carboxamide], the IC50 in data set [1] (setting [5]) and in data set [2] was 3 to 30 nM throughout.

As for `COc1cc(C(=O)NC(=N)Nc2cccc(NC(=O)c3ccccc3)c2)cc(OC)c1OC` [Compound 15, N—(N-(3-benzamidophenyl)carbamimidoyl)-3,4,5-trimethoxybenzamide], the IC50 in data set [1] (setting [5]) was 300 to 1000 nM.

`CS(=O)(=O)c1ccc(C(=O)Nc2ccc(Cl)c(-c3ccccn3)c2)c(Cl)c1` [GDC-0449, reference compound]: the IC50 in data set [1] (setting [5]) was in the range of 3 to 30 nM.

Consider cyclopamine [reference compound], for which the IC50 in data set [1] (after induction with 0.1 μM SAG) was 300 to 1000 nM. For the same compound, in data set [3], the “concentrations cytotoxic for cells” value is on record as “above 10 μM”.

For the compound `COc1cc(C(=O)NC(=N)Nc2cccc(NC(=O)c3ccc(N4CCOCC4)cc3)c2)cc(OC)c1OC` [Compound 18, 3,4,5-trimethoxy-N—(N-(3-(4-morpholinobenzamido)phenyl)-carbamimidoyl)benzamide], the IC50 in data set [1] (setting [5]) was 30 to 300 nM.

`COc1cc(C(=O)NC(=N)Nc2ccc(C)c(C(=O)Nc3ccccc3)c2)cc(OC)c1OC` [Compound 22, 3,4,5-trimethoxy-N—(N-(4-methyl-3-(phenylcarbamoyl)phenyl)-carbamimidoyl)benzamide]: the IC50 in data set [1] (setting [5]) lay within 30 to 300 nM.

For `COc1cc(C(=O)NC(=N)Nc2ccc(Cl)c(C(=O)Nc3ccccc3)c2)cc(OC)c1OC` [Compound 21, N—(N-(4-chloro-3-(phenylcarbamoyl)phenyl)carbamimidoyl)-3,4,5-trimethoxybenzamide], the IC50 in data set [1] (setting [5]) was 300 to 1000 nM.

Take `COc1cc(C(=O)NC(=N)Nc2ccc(Cl)c(NC(=O)c3ccc(-c4ccccc4)cc3)c2)cc(OC)c1OC` [Compound 17, N-(2-chloro-5-(3-(3,4,5-trimethoxybenzoyl)guanidino)phenyl)-biphenyl-4-carboxamide]: in data set [1] (setting [5]), the IC50 fell in the range of 30 to 300 nM.

`COc1cc(C(=O)NC(=N)Nc2cccc(-c3cc4ccccc4[nH]3)c2)cc(OC)c1OC` [Compound 19, N—(N-(3-(1H-indol-2-yl)phenyl)carbamimidoyl)-3,4,5-trimethoxybenzamide]: the melting point came out at 149 °C. For the same compound, the IC50 in data set [1] (setting [5]) lay within 30 to 300 nM.

As for `COc1cc(C(=O)NC(=N)Nc2ccc(Cl)c(NC(=O)c3ccccc3)c2)cc(OC)c1OC` [Compound 16, N—(N-(3-benzamido-4-chlorophenyl)carbamimidoyl)-3,4,5-trimethoxybenzamide], the IC50 in data set [1] (setting [5]) fell in the range of 300 to 1000 nM.

For the compound `COc1cccc(CN(C(=O)CC(C)(C)C)C2CC(C(=O)N3CCNCC3)N(Cc3ccc4c(c3)OCO4)C2)c1` (stereo not shown) [Cur61414, reference compound], the IC50 was 300 to 1000 nM in data set [1] (setting [5]) and 30 to 300 nM in data set [2]. The “Induction of the Ptc gene messenger RNA in the subventricular zone” value in data set [4] is “disappears”.

In the case of `COc1cc(C(=O)NC(=N)Nc2ccc(C)c(NC(=O)c3ccc(-c4ccccc4)cc3)c2)cc(OC)c1OC` [Compound 24, N-(2-methyl-5-(3-(3,4,5-trimethoxybenzoyl)guanidino)phenyl)-biphenyl-4-carboxamide], the IC50 in data set [1] (setting [5]) and in data set [2] was 3 to 30 nM each time. Besides, the “Induction of the Ptc gene messenger RNA in the subventricular zone” value in data set [4] is given as “disappears”.

Regarding `COc1ccc(NC(=O)c2cc(NC(=N)NC(=O)c3cc(OC)c(OC)c(OC)c3)ccc2Cl)cc1` [Compound 20, N—(N-(4-chloro-3-(4-methoxyphenylcarbamoyl)phenyl)-carbamimidoyl)-3,4,5-trimethoxybenzamide], the melting point is 105 °C. Moreover, the IC50 in data set [1] (setting [5]) was in the range of 300 to 1000 nM.
